Ends that are not written are not given here.
Assays:
FMC63 IgG = assay: Yeast clone staining with biotinylated FMC63 IgG, Kd from MFI (FACS); type: binding, mouse; conditions: yeast clones, 0.01-1000 nM biotinylated FMC63 IgG
Description: In order to validate specific sequences, clones were isolated and measured for their affinity to FMC63. Specifically, a subset of mimotope clones were selected from the fixed library sequence described in Example 5.

FMC63 scFv = assay: Yeast clone staining with biotinylated FMC63 scFv, Kd by FACS; type: binding, mouse; conditions: yeast clones, biotinylated FMC63 scFv monomer
Description: FIGS. 10A & 10B provide graphs showing binding of yeast clones expressing the indicated mimotopes to biotinylated FMC63 IgG (FIG. 10A) or biotinylated FMC63 scFv (FIG. 10B) at increasing concentration (0.01-1000 nM).
Identifying specific mimotope clones of varying affinities will provide flexibility in treatments. In order to validate specific sequences, clones were isolated and measured for their affinity to FMC63. Specifically, a subset of mimotope clones were selected from the fixed library sequence described in Example 5. […] Given the FDA-approved CAR is an scFV derived from the parental IgG, mimotope binding to FMC63-scFv monomer was tested using biotinylated FMC63 scFV to measure Kd by FACS (FIG. 10B). […] This screen positively identified mimotope clones with varying affinities to FMC63 which may be used for a tailored vaccine approach.

FMC63 CAR T cells = assay: Long-term in vivo boosting, CAR T expansion in peripheral blood; conditions: day 13; vaccinations day 2 and day 9 with 25 μg cyclic-di-GMP; lymphodepleted mice; vs control mice
Description: FIG. 19A depicts a timeline for administration of CD45.1+ donor FMC63 CAR T cells to CD45.2+ recipient mice on Day 1 following lymphodepletion on day 0. The mice were further administered a first dose of amph-mimotope or bivalent amph-mimotope on Day 2 and a second dose on Day 9. Peripheral blood was obtained from the mice on Day 13 and expansion of CD45.1+ CAR T cells were quantified by flow cytometry. FIG. 19B provides plots measuring the percentage of total T cells expressing CD45.1 and FMC63 CAR in peripheral blood isolated on day 13 from mice treated according to FIG. 19A. […] Control mice received no vaccination. […] Briefly, CD45.2^+ recipient mice received lymphodepeletion preconditioning (sublethal irradiation, 500cGy) on day 0. The mice were then administered 1×10^6 CD45.1^+ donor FMC63 CAR T cells on day 1, followed by two vaccinations on day 2 and day 9 using the following formulation: • (i) 10 ug of monovalent amph-mimotope (Amph-K-C2)+25 μg of cyclic-di-GMP in 1×PBS; or • (ii) 20 ug of amph-Bi-F12-mimotope (PEG4 or PEG8)+25 μg of cyclic-di-GMP in 1×PBS. Control mice received no vaccination. On day 13, peripheral blood was collected for analysis of CAR T expansion in response to amph-mimotope vaccine boosting by flow cytometry. CAR T cells were defined as CD45.1^+CAR^+ cells and were quantified as proportion of total CD8+ T cells.

Sequence of FMC63 IgG (as listed by the source): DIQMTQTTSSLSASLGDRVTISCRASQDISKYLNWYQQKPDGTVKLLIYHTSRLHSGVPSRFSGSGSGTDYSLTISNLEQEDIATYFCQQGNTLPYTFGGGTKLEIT
Sequence of FMC63 IgG (as listed by the source): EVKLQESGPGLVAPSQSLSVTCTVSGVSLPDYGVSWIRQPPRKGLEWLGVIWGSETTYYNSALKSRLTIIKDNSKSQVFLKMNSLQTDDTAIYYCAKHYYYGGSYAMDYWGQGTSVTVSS
Sequence of FMC63 scFv (as listed by the source): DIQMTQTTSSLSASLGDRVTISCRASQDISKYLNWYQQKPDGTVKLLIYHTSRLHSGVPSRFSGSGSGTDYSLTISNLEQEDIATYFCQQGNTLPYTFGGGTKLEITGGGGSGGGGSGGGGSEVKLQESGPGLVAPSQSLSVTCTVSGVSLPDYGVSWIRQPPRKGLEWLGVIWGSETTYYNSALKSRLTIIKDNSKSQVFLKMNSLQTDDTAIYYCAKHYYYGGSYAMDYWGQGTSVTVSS

Substance	Kd (FMC63 IgG)	Kd (FMC63 scFv)	expansion of CAR T cells (CD45.1+CAR+ of total CD8+ T cells) in peripheral blood (FMC63 CAR T cells)
D12 (RICPWSCRAP; Synthetic FMC63 Mimotope (D12)) [Clone D12]	> 1000 nM	> 1000 nM	
amph-bi-F12-peg8 (GGGSASRICPWNCKEL; not fully specified (C-terminus); cysteine pairing not given here; also: bivalent amphiphile conjugate via C-terminal PEG8 linker)			highest level of proliferation

From patent publication US12433954B2, “Methods of activating anti-CD19 chimeric antigen receptor (CAR) T cells using amphiphilic ligand conjugates comprising CAR-targeting protein sequence motifs” (Massachusetts Institute of Technology, priority 2020, dated 2025)
